ChEMBL document CHEMBL1201862, “PubChem BioAssay data set” (2004)
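Exposure lasted 48 hours, with cells grown in 96-well plates and compounds tested at five concentrations. GI50: concentration for 50% inhibition of growth.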 The source made the active and inactive calls. Cut-off read from the data, not from the text of the source: active = GI50 up to about 1.1 µM and inactive = higher.

Assays:
Assay in all cases: inhibition of tumour cell growth, NCI panel, 48 h
A498 = test system: A498
HCC 2998 = test system: HCC 2998
LOX IMVI = test system: LOX IMVI
MOLT-4 = test system: MOLT-4
Malme-3M = test system: Malme-3M
NCI-H460 = test system: NCI-H460
OVCAR-3 = test system: OVCAR-3
OVCAR-8 = test system: OVCAR-8
SF-268 = test system: SF-268
SN12C = test system: SN12C
SNB-75 = test system: SNB-75
SR = test system: SR
U-251 = test system: U-251
UACC-257 = test system: UACC-257
UACC-62 = test system: UACC-62
IGROV-1 = test system: IGROV-1
OVCAR-5 = test system: OVCAR-5

Measured: GI50

CCCCCCCCCCCC(=O)OCC1OC(n2cc(F)c(=O)[nH]c2=O)C(N)C(OC(=O)CCCCCCCCCCC)C1O (centres undefined)
inactive: A498 > 100 µM | HCC 2998 45.3 µM | LOX IMVI 88.3 µM | MOLT-4 27 µM | Malme-3M > 100 µM | NCI-H460 > 100 µM | OVCAR-3 47.5 µM | OVCAR-8 93.1 µM | SF-268 > 100 µM | SN12C 60.7 µM | SNB-75 49.7 µM | SR 34.4 µM | U-251 > 100 µM | UACC-257 > 100 µM | UACC-62 > 100 µM

O=C(O)CCCCCOc1cccnc1/C=N/NC1=NCCN1
inactive: A498 59.6 µM | HCC 2998 > 100 µM | IGROV-1 > 100 µM | LOX IMVI > 100 µM | MOLT-4 > 100 µM | Malme-3M > 100 µM | NCI-H460 > 100 µM | OVCAR-3 > 100 µM | OVCAR-5 > 100 µM | OVCAR-8 > 100 µM | SF-268 > 100 µM | SN12C > 100 µM | SNB-75 20.7 µM | SR > 100 µM | U-251 > 100 µM | UACC-257 > 100 µM | UACC-62 > 100 µM

O=c1nc(NC(c2ccccc2)(c2ccccc2)c2ccccc2)ccn1CCNCCn1ccc(NC(c2ccccc2)(c2ccccc2)c2ccccc2)nc1=O
inactive: A498 27 µM | HCC 2998 3.96 µM | IGROV-1 5.15 µM | LOX IMVI 2.84 µM | Malme-3M 11.8 µM | NCI-H460 11.8 µM | OVCAR-3 11.9 µM | OVCAR-5 31 µM | OVCAR-8 10.7 µM | SF-268 4.84 µM | SN12C 12.4 µM | SNB-75 20.2 µM | U-251 4.33 µM | UACC-257 5.82 µM | UACC-62 4.42 µM

CCOC(=O)CC[C@H](NC(=O)c1nc[nH]c1[N+](=O)[O-])C(=O)OCC
inactive: A498 > 100 µM | HCC 2998 > 100 µM | IGROV-1 > 100 µM | LOX IMVI > 100 µM | MOLT-4 > 100 µM | Malme-3M > 100 µM | NCI-H460 > 100 µM | OVCAR-3 > 100 µM | OVCAR-8 > 100 µM | SF-268 > 100 µM | SN12C > 100 µM | SR 35.7 µM | U-251 > 100 µM | UACC-257 > 100 µM | UACC-62 > 100 µM

COc1ccc(OCC(=O)O)c2c1CCC(C(C)C)C2=O (centres undefined)
inactive: A498 > 100 µM | HCC 2998 > 100 µM | IGROV-1 > 100 µM | LOX IMVI > 100 µM | MOLT-4 > 100 µM | Malme-3M > 100 µM | NCI-H460 > 100 µM | OVCAR-3 > 100 µM | OVCAR-5 > 100 µM | OVCAR-8 > 100 µM | U-251 > 100 µM | UACC-257 > 100 µM | UACC-62 > 100 µM

CC(=O)OC(/C=C1/C=CC(=O)O1)COC(=O)c1ccccc1 (centres undefined) [ACETYLMELODORINOL]
inactive: A498 > 31.2 µM | HCC 2998 > 31.2 µM | IGROV-1 > 31.2 µM | LOX IMVI > 31.2 µM | Malme-3M > 31.2 µM | NCI-H460 > 31.2 µM | OVCAR-3 > 31.2 µM | OVCAR-5 > 31.2 µM | OVCAR-8 > 31.2 µM | SF-268 > 31.2 µM | SN12C > 31.2 µM | SNB-75 > 31.2 µM | U-251 > 31.2 µM | UACC-257 > 31.2 µM | UACC-62 > 31.2 µM

COC(=O)C(C(=O)c1ccccc1)C(C(=O)C(=O)Nc1ccc(OC)cc1OC)C(=O)C(=O)c1ccc(C)cc1 (centres undefined)
inactive: A498 > 100 µM | HCC 2998 > 100 µM | IGROV-1 > 100 µM | LOX IMVI > 100 µM | MOLT-4 > 100 µM | Malme-3M > 100 µM | NCI-H460 > 100 µM | OVCAR-3 > 100 µM | OVCAR-5 > 100 µM | OVCAR-8 > 100 µM | SF-268 > 100 µM | SN12C > 100 µM | SNB-75 > 100 µM | SR > 100 µM | U-251 > 100 µM | UACC-257 > 100 µM | UACC-62 > 100 µM

CN(C)C(=S)/N=c1\ss/c(=N\c2ccccc2)n1-c1ccccc1
inactive: A498 34 µM | HCC 2998 18.7 µM | IGROV-1 25.1 µM | LOX IMVI 17.1 µM | MOLT-4 30 µM | Malme-3M 21.3 µM | OVCAR-3 13.7 µM | OVCAR-5 > 100 µM | OVCAR-8 19.2 µM | SF-268 21.6 µM | SN12C 49.5 µM | SNB-75 14.8 µM | U-251 24.7 µM | UACC-257 24.2 µM

O=C(O)CSc1nnc(-c2ccc(O)cc2)[nH]1
inactive: A498 > 100 µM | HCC 2998 > 100 µM | IGROV-1 > 100 µM | MOLT-4 > 100 µM | Malme-3M > 100 µM | NCI-H460 > 100 µM | OVCAR-3 > 100 µM | OVCAR-5 > 100 µM | OVCAR-8 > 100 µM | SF-268 > 100 µM | SN12C > 10 µM | SNB-75 41 µM | SR > 100 µM | U-251 > 100 µM | UACC-257 > 100 µM | UACC-62 > 100 µM

O=C(CCc1nnc(S)[nH]1)Nc1ccccc1Cl
inactive: A498 > 100 µM | HCC 2998 > 100 µM | IGROV-1 > 100 µM | LOX IMVI > 100 µM | MOLT-4 > 100 µM | Malme-3M > 100 µM | NCI-H460 > 100 µM | OVCAR-3 > 100 µM | OVCAR-5 > 100 µM | OVCAR-8 > 100 µM | SF-268 > 100 µM | SN12C > 100 µM | SNB-75 > 100 µM | SR > 100 µM | U-251 > 100 µM | UACC-257 > 100 µM | UACC-62 > 100 µM

Cc1nn2c3c(nnc2c1C#N)C(=O)NN=C(N)S3
inactive: IGROV-1 > 100 µM | MOLT-4 > 100 µM | Malme-3M > 100 µM | OVCAR-3 > 100 µM | OVCAR-5 > 100 µM | OVCAR-8 > 100 µM | SF-268 > 100 µM | SN12C > 100 µM | SR > 100 µM | U-251 > 100 µM | UACC-62 > 100 µM

CC(=O)OCC1OC(OC2CC3C(C)(C)C(OC(C)=O)CC[C@]3(C)C3CCC45CC4(CC[C@H]5C(C)CC(O)[C@@H](O)C(C)(C)O)[C@]23C)C(O)C(O)C1O (some centres undefined)
inactive: A498 7 µM | HCC 2998 6.84 µM | IGROV-1 7.36 µM | LOX IMVI 6.95 µM | MOLT-4 2.36 µM | Malme-3M 7.69 µM | NCI-H460 8.95 µM | OVCAR-3 7.19 µM | OVCAR-5 7.66 µM | OVCAR-8 7.45 µM | SF-268 8.11 µM | SN12C 7.05 µM | SNB-75 6.18 µM | U-251 6.28 µM | UACC-257 7.53 µM | UACC-62 6.25 µM

C1=C(c2ccccc2)CN(c2ccccc2)OC1
inactive: HCC 2998 > 100 µM | IGROV-1 > 100 µM | LOX IMVI > 100 µM | MOLT-4 74.5 µM | Malme-3M > 100 µM | NCI-H460 > 100 µM | OVCAR-3 > 100 µM | OVCAR-5 26.8 µM | SF-268 79.3 µM | SN12C > 100 µM | SNB-75 66.4 µM | SR 55.3 µM | U-251 > 100 µM | UACC-62 67.3 µM

CCC(/C(=N/NC(=O)C[N+](C)(C)C)c1ccccc1)C1OC(=O)c2ccccc21 (centres undefined)
inactive: HCC 2998 > 100 µM | IGROV-1 > 100 µM | LOX IMVI > 100 µM | MOLT-4 > 100 µM | Malme-3M > 100 µM | NCI-H460 > 100 µM | OVCAR-3 > 100 µM | OVCAR-5 > 100 µM | OVCAR-8 > 100 µM | SF-268 > 100 µM | SN12C > 100 µM | SNB-75 > 100 µM | SR > 100 µM | U-251 > 100 µM | UACC-257 > 100 µM | UACC-62 > 100 µM

O=C(CSc1nnc(-c2ccc(/N=C\c3ccc(Cl)cc3)cc2)o1)Nc1ccccc1[N+](=O)[O-]
inactive: LOX IMVI > 100 µM | MOLT-4 > 100 µM | Malme-3M > 100 µM | NCI-H460 > 100 µM | OVCAR-8 > 100 µM | SF-268 > 100 µM | SN12C > 100 µM | SNB-75 > 100 µM | SR > 100 µM | U-251 > 100 µM | UACC-257 > 100 µM | UACC-62 > 100 µM

O=C1c2ccccc2C(=O)C1C(c1ccc([N+](=O)[O-])cc1)C1C(=O)c2ccccc2C1=O
inactive: HCC 2998 > 100 µM | LOX IMVI 18 µM | MOLT-4 36.9 µM | Malme-3M > 100 µM | NCI-H460 > 100 µM | OVCAR-3 18.5 µM | OVCAR-5 > 100 µM | OVCAR-8 25.5 µM | SF-268 24.9 µM | SN12C 36.6 µM | SNB-75 38.6 µM | SR 28.2 µM | U-251 30.3 µM | UACC-257 33.7 µM | UACC-62 32.6 µM

Cc1nc2ccccc2c(=O)[nH]1
inactive: A498 > 100 µM | HCC 2998 > 100 µM | IGROV-1 > 100 µM | LOX IMVI > 100 µM | MOLT-4 > 100 µM | Malme-3M > 100 µM | NCI-H460 > 100 µM | OVCAR-3 > 100 µM | OVCAR-5 > 100 µM | OVCAR-8 > 100 µM | SF-268 > 100 µM | SN12C > 100 µM | SNB-75 37.1 µM | U-251 > 100 µM | UACC-257 > 100 µM | UACC-62 > 100 µM
